Structures can show the parent of a compound that is named as a salt. Where two headings read alike, the source gives them in different places.
Assays:
[1] = target: T1, erythrocyte AChE (Homo sapiens, UniProt P22303); experiment: In vitro inhibition of erythrocyte AChE (Table 3); assay type: biochemical; conditions: for IC50: erythrocyte AChE, n = 4-8, read-out: AChE IC50 (μM) ± s.e.; for S.I.: selectivity index (IC50 BuChE/IC50 AChE)
T1 construct: from tissue

[2] = test system: heart AChE; experiment: Inhibition kinetics of heart AChE after oral administration (Table 2); assay type: in vivo; conditions: p.o. at 1/7 LD50: CHF 2060 10, CHF 2819 1.3, CHF 2822 2.5, CHF 2957 9 mg/kg; 1, 4, 16 h; rat
Procedure: (§1) In a preferred embodiment of the present invention, compounds CHF 2819, CHF 2957, CHF 2822 were evaluated for their enzymatic inhibition potency and selectivity of action through a series of parameters in comparison with n-heptylaminocarbonylgeneseroline hydrochloride (CHF2060).
(§2) Male SD rats weighing 150-200 g were split into groups of 8 animals each, depending on the treatment with the different substances, which were orally administered in distilled water, at a volume of 2 ml/kg. After 2 hours from the administration, the animals were sacrificed as to take their brains. Brain tissue was homogenized in a […] solution in 0.1 M phosphate buffer at pH 8. After 15 minutes centrifugation, at 4° C., the supernatant was separated and AChE was determined on it with the method described by ElIman G. L. et al. (Biochem Pharmacol. 7, 88-95, 1961). For each treatment enzyme inhibition percent was determined against controls (animals treated with distilled water only).
(§3) Another series of experiments was performed in order to determine inhibition kinetics of brain and heart AChE after 1, 4 and 16 hours from administration of each tested substance. Enzyme was assayed on tissue homogenates similarly to what above described. […] Area Under Curve (AUC) was calculated by means of the enzymatic inhibition curve, for brain and heart tissue, related to the three test times.

[3] = target: T2, brain AChE (Rattus norvegicus, UniProt P37136); experiment: Inhibition kinetics of brain AChE after oral administration (Table 2); assay type: in vivo; conditions: for selectivity index*: Brain AUC/Heart AUC; for selectivity index* / brain AUC (% inhib · xh) / inhibition at 9 mg/kg: p.o. at 1/7 LD50: CHF 2060 10, CHF 2819 1.3, CHF 2822 2.5, CHF 2957 9 mg/kg, rat; for brain AUC (% inhib · xh) / inhibition at 9 mg/kg: 1, 4, 16 h; for inhibition at 9 mg/kg: po, read-out: brain AChE maximum % inhibition
T2 construct: from tissue; host or cells: rat brain (male SD rats), homogenate in Triton/phosphate buffer, supernatant
T2 sequence (P37136 32-614): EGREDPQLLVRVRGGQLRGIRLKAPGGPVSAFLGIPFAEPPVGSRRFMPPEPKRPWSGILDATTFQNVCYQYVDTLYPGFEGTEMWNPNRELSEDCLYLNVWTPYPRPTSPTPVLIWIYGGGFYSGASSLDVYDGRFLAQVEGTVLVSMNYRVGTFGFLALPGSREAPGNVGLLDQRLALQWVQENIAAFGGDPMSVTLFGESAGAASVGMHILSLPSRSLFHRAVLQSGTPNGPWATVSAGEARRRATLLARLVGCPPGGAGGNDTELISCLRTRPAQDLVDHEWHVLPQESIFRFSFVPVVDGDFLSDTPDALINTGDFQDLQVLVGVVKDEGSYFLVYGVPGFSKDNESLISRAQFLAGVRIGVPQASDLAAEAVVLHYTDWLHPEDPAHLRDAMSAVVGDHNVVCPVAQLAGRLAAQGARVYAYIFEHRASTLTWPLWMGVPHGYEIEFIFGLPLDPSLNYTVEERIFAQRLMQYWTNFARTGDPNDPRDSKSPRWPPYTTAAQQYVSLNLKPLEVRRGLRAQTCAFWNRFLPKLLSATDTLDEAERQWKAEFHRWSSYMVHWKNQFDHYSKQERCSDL
Procedure: as §1, §2, §3

[4] = target: T3, human plasma BuChE (Homo sapiens, UniProt P06276); experiment: In vitro inhibition of human plasma BuChE (Table 3); assay type: biochemical; conditions: for IC50: human plasma BuChE, n = 4-8, read-out: BuChE IC50 (μM) ± s.e.
T3 construct: human plasma BuChE; from tissue; host or cells: human plasma
T3 sequence (P06276 29-602): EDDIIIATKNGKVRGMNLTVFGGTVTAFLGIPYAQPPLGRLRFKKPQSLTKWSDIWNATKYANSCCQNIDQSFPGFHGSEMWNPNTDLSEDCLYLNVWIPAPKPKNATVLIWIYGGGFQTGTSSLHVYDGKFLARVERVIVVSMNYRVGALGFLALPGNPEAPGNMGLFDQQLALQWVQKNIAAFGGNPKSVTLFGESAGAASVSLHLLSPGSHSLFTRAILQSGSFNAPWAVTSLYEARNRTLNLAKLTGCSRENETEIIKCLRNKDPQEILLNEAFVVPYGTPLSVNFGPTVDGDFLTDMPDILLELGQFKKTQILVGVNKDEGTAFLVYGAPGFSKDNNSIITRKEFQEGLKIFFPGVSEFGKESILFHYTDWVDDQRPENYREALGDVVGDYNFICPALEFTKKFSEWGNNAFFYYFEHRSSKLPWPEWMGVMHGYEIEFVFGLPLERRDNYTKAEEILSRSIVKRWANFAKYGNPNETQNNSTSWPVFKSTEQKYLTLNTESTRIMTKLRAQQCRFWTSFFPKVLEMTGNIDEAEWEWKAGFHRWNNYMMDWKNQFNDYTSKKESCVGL

[5] = test system: brain acetylcholinesterase (AChE); conditions: European patent 0599890; cited from earlier work
[6] = target: T2, brain AChE; experiment: Rat brain AChE inhibition ex vivo after oral administration (Table 1); assay type: in vivo; conditions: for ED50: read-out: ED50 (dose of compound to inhibit 50% of the enzyme), p.o., brain AChE, C.L. 95% given; for inhibition at 3 mg/kg: 3 mg/kg p.o.; for Potency relative to CHF 2060: inhibition of AChE after oral administration in rat
Procedure: as §1, §2

T1 sequence (P22303 other isoform, or with tags, fused parts or gaps): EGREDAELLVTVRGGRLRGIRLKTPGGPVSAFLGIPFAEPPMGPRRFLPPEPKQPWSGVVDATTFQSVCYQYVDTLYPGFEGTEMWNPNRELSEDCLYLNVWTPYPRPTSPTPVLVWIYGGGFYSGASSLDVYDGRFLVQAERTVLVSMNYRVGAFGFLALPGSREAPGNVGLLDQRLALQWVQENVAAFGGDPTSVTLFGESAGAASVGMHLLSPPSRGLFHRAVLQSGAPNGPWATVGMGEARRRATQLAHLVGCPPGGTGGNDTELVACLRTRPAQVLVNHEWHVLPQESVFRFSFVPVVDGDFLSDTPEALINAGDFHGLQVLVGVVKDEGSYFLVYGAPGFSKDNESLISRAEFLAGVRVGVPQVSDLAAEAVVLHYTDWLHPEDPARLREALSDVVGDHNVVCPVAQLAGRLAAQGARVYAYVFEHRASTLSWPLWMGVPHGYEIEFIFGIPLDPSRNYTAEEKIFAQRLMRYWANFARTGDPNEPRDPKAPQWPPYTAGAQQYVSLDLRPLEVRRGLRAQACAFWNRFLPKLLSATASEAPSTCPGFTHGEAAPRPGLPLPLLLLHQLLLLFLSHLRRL

SMILES: CCCCCCCNC(=O)Oc1ccc2c(c1)[C@]1(C)CCN(C)OC1N2C (stereo partly shown) [CHF 2060, n-heptylaminocarbonylgeneseroline hydrochloride, reference compound]
- IC50 ([1]; in vitro): 0.85 ± 0.08 µM
- S.I. [1]: 0.005
- Heart AChE maximum % inhibition [2]: 41%
- Heart AUC (% inhib · xh) [2]: 450 % inhib · xh
- selectivity index* [3]: 0.6
- brain AUC (% inhib · xh) [3]: 252 % inhib · xh
- inhibition at 9 mg/kg [3]: 20%
- BuChE inhibition relative to AChE (in words) [4]: definitely more potent in inhibiting BuChE, rather than AChE
- IC50 [4]: 0.005 ± 0.0007 µM
- brain acetylcholinesterase inhibition, duration (in words) [5]: inhibitor of brain acetylcholinesterase characterised by a long action
- Potency order (*) [6]: 1
- ED50 ([6]; po, rat, 2 h): 13.2 mg/kg
- inhibition at 3 mg/kg ([6]; rat, po, 2 h, SD rats): 8%
- inhibition at 10 mg/kg ([6]; rat, po, 10 mg/kg p.o., 2 h, SD rats): 29%
- inhibition at 30 mg/kg ([6]; rat, po, 30 mg/kg p.o., 2 h, SD rats): 60%

SMILES: CCc1ccccc1NC(=O)Oc1ccc2c(c1)[C@]1(C)CCN(C)OC1N2C (stereo partly shown) [CHF 2819, n-(2-ethylphenyl)aminocarbonylgeneseroline hydrochloride]
- selectivity AChE versus BuChE (in words) ([1]; in vitro): favourable "in vitro" selectivity on AChE with respect to BuChE
- selectivity on AChE ([1]; in vitro, AChE versus BuChE, from selectivity index): 115 times
- IC50 ([1]; in vitro): 0.48 ± 0.06 µM
- S.I. [1]: 115
- Heart AChE maximum % inhibition [2]: 4%
- Heart AUC (% inhib · xh) [2]: 36 % inhib · xh
- selectivity index* [3]: 9.7
- in vivo selectivity in inhibiting brain AChE (in words) ([3]; brain versus heart/peripheral): "in vivo" selectivity in inhibiting brain AChE
- duration of action (in words) ([3]; in vivo): good duration of action
- brain AUC (% inhib · xh) [3]: 348 % inhib · xh
- IC50 [4]: 55.2 ± 6.43 µM
- Potency relative to CHF 2060 [6]: 8 times
- ED50 ([6]; po, rat, 2 h): 1.5 mg/kg
- Potency order (*) ([6]; rat p.o., CHF 2060 = 1): 8
- inhibition at 0.4 mg/kg ([6]; rat, po, 0.4 mg/kg p.o., 2 h, SD rats): 9%
- inhibition at 1.3 mg/kg ([6]; rat, po, 1.3 mg/kg p.o., 2 h, SD rats): 34%
- inhibition at 3.7 mg/kg ([6]; rat, po, 3.7 mg/kg p.o., 2 h, SD rats): 55%

SMILES: Cc1ccccc1NC(=O)Oc1ccc2c(c1)[C@]1(C)CCN(C)OC1N2C (stereo partly shown) [CHF 2822, n-(2-methylphenyl)aminocarbonylgeneseroline hydrochloride]
- selectivity AChE versus BuChE (in words) ([1]; in vitro): slightly less selective
- IC50 ([1]; in vitro): 2.01 ± 0.08 µM
- S.I. [1]: 0.09
- Heart AChE maximum % inhibition [2]: 9%
- Heart AUC (% inhib · xh) [2]: 96 % inhib · xh
- selectivity index* [3]: 3.9
- brain AUC (% inhib · xh) [3]: 379 % inhib · xh
- IC50 [4]: 0.18 ± 0.01 µM
- Potency relative to CHF 2060 [6]: 7 times
- ED50 ([6]; po, rat, 2 h): 1.6 mg/kg
- Potency order (*) ([6]; rat p.o., CHF 2060 = 1): 7
- inhibition at 0.8 mg/kg ([6]; rat, po, 0.8 mg/kg p.o., 2 h, SD rats): 25%
- inhibition at 2.5 mg/kg ([6]; rat, po, 2.5 mg/kg p.o., 2 h, SD rats): 46%
- inhibition at 7.5 mg/kg ([6]; rat, po, 7.5 mg/kg p.o., 2 h, SD rats): 68%

SMILES: Cc1cccc(NC(=O)Oc2ccc3c(c2)[C@]2(C)CCN(C)OC2N3C)c1 (stereo partly shown) [CHF 2957, n-(3-methylphenyl)aminocarbonylgeneseroline hydrochloride]
- selectivity AChE versus BuChE (in words) ([1]; in vitro): good selectivity
- IC50 ([1]; in vitro): 4.2 ± 0.29 µM
- S.I. [1]: 32
- Heart AChE maximum % inhibition [2]: 13%
- Heart AUC (% inhib · xh) [2]: 125 % inhib · xh
- selectivity index* [3]: 4.7
- brain AUC (% inhib · xh) [3]: 585 % inhib · xh
- inhibition at 9 mg/kg [3]: 62%
- IC50 [4]: 134 ± 9.7 µM
- Potency relative to CHF 2060 [6]: 3 times
- ED50 ([6]; po, rat, 2 h): 4.1 mg/kg
- Potency order (*) ([6]; rat p.o., CHF 2060 = 1): 3
- inhibition at 3 mg/kg ([6]; rat, po, 2 h, SD rats): 21%
- inhibition at 6 mg/kg ([6]; rat, po, 6 mg/kg p.o., 2 h, SD rats): 56%
- inhibition at 9 mg/kg ([6]; rat, po, 9 mg/kg p.o., 2 h, SD rats): 67%

SMILES: CNC(=O)Oc1ccc2c(c1)[C@]1(C)CCN(C)[C@@H]1N2C [Physostigmine, reference compound]
- S.I. [1]: 0.27

SMILES: CCN(C)C(=O)Oc1cccc([C@H](C)N(C)C)c1 [SDZ-ENA 713, reference compound]
- AChE affinity / activity (in words) ([1]; in vitro, evaluated as IC50): less active than other products
- S.I. [1]: 0.007

From US6297237A, “Process for the preparation of aminocarbonyl derivatives of geneseroline having selective brain anticholinesterase activity” (priority 1997, dated 2001)
